Read-outs that look alike come from different tables or passages of the source. *1 amine or outer side, *2 acyl side, *3 side chain or, on linkers, in order; H or OH if unused. Where a SMILES comes first, the peptide text is derived from it. Bridges are numbered along the chain shown (N, C = ends). Roman numbers before positions name the chains, in order. [ ]: non-standard residue; d: D form. Actinocin(9to1) = Cc1c2oc3c(C)ccc(C(=O)[*:1])c3nc-2c(C(=O)[*:2])c(N)c1=O; NMeV = CN[C@H](C(=O)O)C(C)C; Sar = CNCC(=O)O
Legend:
[1] = system: E.A. cells; assay: Light and electron microscopic examination of E.A. tumor cells after treatment; format: in vivo, mouse; details: 1 mg/kg (2 mg/kg in the first case), 1 hour to 5 days after treatment
Description: Electron microscopic studies of tissue cells were also conducted. For the electron microscopic studies, a mouse was inoculated with E.A. cells in the manner described above. Five days after the inoculation, liposomes containing actinomycin D at a concentration of 2 mg/kg were injected intraperitoneally. At intervals of 1, 6, 12 and 24 hours after the liposome injection, 0.2 ml of ascites fluid was aspirated from the mouse abdominal cavity with a syringe. The fluid was centrifuged and the pellet of E.A. cells was fixed and processed for examination in an electron microscope. […] Light and electron microscopic examination of E.A. tumor cells was also carried out 1 hour to 5 days after treatment with liposome-encapsulated and nonencapsulated actinomycin D at a dose of 1 mg/kg. […] There was an increase in lipid droplets, lyosomes and autophagic vacuoles and the ribosomes were clumped into distinct clusters. Fewer dividing cells were seen, at least after 24 hours post-treatment.

[2] = mice
Description: Female CF No. 1 (Carworth Farms) mice, 3 months of age, weighing between 27 and 29 grams, were used in each instance in these experiments. For toxicity studies, groups of 15 or 20 mice were given actinomycin D at different levels, either in the nonencapsulated or in the liposome-encapsulated forms. Toxicity of actinomycin D was tested by both intravenous and intraperitoneal injection. Experiments were carried out to test the therapeutic efficacy of the encapsulated actinomycin D against Ehrlich ascites (E. A.) tumor cells in vivo. In Experiment I, mice recieved 20 × 10^6 E.A. cells by intraperitoneal injection. After 5 days, separate groups were treated with one of the following: (1) 0.4 ml of 8 mM calcium chloride, (2) nonencapsulated actinomycin D (0.75 mg/kg), or (3) liposome-encapsulated actinomycin D (0.75 mg/kg). In Experiment II, two groups of 10 mice were similarly inoculated. Treatment of one group was begun after 3 days with 0.5 mg/kg of encapsulated actinomycin D, followed by injection on 4 consecutive days with 0.25 mg/kg. All injections were given intraperitoneally, in a volume of 0.4 ml in Experiment I, 0.2 ml in Experiment II.

[3] = system: Ehrlich ascites (E. A.) tumor cells; assay: Therapeutic efficacy against Ehrlich ascites tumor cells in vivo (survival time); parameters: species or system mice; details: Experiment I: single i.p. treatment 0.75 mg/kg, 5 days after inoculation of 20 × 10^6 E.A. cells; control 7.4 ± 3.11 days
Description: Referring to FIG. 1, there is illustrated the therapeutic effect of liposome-encapsulated actinomycin D on the survival of mice bearing E.A. tumor following single treatments given at 5 days after inoculation of 20 × 10^6 E.A. cells. A control is represented by line 11 on the graph, liposome-encapsulated actinomycin D at 0.75 mg/kg represented by line 12 and nonencapsulated actinomycin D at 0.75 mg/kg represented by line 13.
Referring to FIG. 2, there is shown graphically the therapeutic effect of liposome-encapsulated actinomycin D on the survival of mice bearing E.A. tumor with multiple daily treatments starting at day 3 after inoculation with 20 × 10^6 E.A. cells. In FIG. 2, the control is represented by line 14, liposome-encapsulated actinomycin D, first dose 0.50 mg/kg followed by four consecutive injections of 0.25 mg/kg, is represented by line 15. As is readily apparent from the graph, the increase in survival time after mutliple injections of encapsulated actinomycin D was even more impressive: 7.3 ± 2.26 days for the control versus 17.6 ± 2.17 days for the encapsulated actinomycin D. All of the control animals died before the first death occurred in the treatment group. In a separate experiment, it was observed that injection of liposomes prepared with KCl instead of actinomycin D had no effect on survival time.

In the case of Cc1c2oc3c(C)ccc(C(=O)N[C@@H]4C(=O)N[C@H](C(C)C)C(=O)N5CCC[C@H]5C(=O)N(C)CC(=O)N(C)[C@@H](C(C)C)C(=O)O[C@@H]4C)c3nc-2c(C(=O)N[C@@H]2C(=O)N[C@H](C(C)C)C(=O)N3CCC[C@H]3C(=O)N(C)CC(=O)N(C)[C@@H](C(C)C)C(=O)O[C@@H]2C)c(N)c1=O [actinomycin D] (I: T[dV]P[Sar][NMeV] / II: T[dV]P[Sar][NMeV]; ester I:1-I:C, II:1-II:C; linker I:N-II:N via Actinocin(9to1)), the “morphological damage of E.A. cells” value [1] is reported as “Significantly fewer E. A. cells were damaged”, the LD50 ([2]; given intravenously) is reported as 0.43 ± 0.04 mg/kg and the LD50 ([2]; intraperitoneal injection) is reported as 0.59 ± 0.17 mg/kg. The “survival of some of the decedents” value ([2]; intraperitoneal injection) was no more than 14 days, the “average survival time of the decedents” value ([2]; intravenous, 0.3 mg/kg) was 3.5 days and the “decedents out of 20 injected” value ([2]; intravenous, 0.3 mg/kg) was 8. For the same compound, the “time within which most of the deaths occurred” value ([2]; intravenous, doses of 0.5 mg/kg and above) was no more than 24 h and the “survival time after treatment” value [3] was “slightly, but not significantly, less than the controls”.

Source: US3993754A (priority 1974, dated 1976)
